This passage reports IC50 results from patent publication US10155750B2, “Amidoethyl azole orexin receptor antagonists” (Merck Sharp & Dohme Corp., priority 2014, dated 2018).

For orientation: IC50 means the concentration at which inhibition is half-maximal. Read a low IC50 as higher potency.

The target in experiment [1] is human orexin-2 receptor (Homo sapiens (Human), UniProt O43614). Description: FLIPR Ca2+ flux assay, hOX2R. Type of experiment: cell-based. The following applies: CHO cells expressing the receptor; agonist 70 pM Ala-6,12 human orexin-A. On the procedure:
The utility of the compounds in accordance with the present invention as orexin receptor OX1R and/or OX2R antagonists may be readily determined without undue experimentation by methodology well known in the art, including the “FLIPR Ca^2+ Flux Assay” (Okumura et al., Biochem. Biophys. Res. Comm. 280:976-981, 2001). In a typical experiment the OX1 and OX2 receptor antagonistic activity of the compounds of the present invention was determined in accordance with the following experimental method. For intracellular calcium measurements, Chinese hamster ovary (CHO) cells expressing the rat orexin-1 receptor or the human orexin-2 receptor, are grown in Iscove's modified DMEM containing 2 mM L-glutamine, […], 1% hypoxanthine-thymidine supplement, 100 U/ml penicillin, 100 μg/ml streptomycin and 10% heat-inactivated fetal calf serum (FCS). The cells are seeded at 20,000 cells/well into Becton-Dickinson black 384-well clear bottom sterile plates coated with poly-D-lysine. All reagents were from GIBCO-Invitrogen Corp. The seeded plates are incubated overnight at 37° C. and 5% CO2. Ala-6,12 human orexin-A as the agonist is prepared as a 1 mM stock solution in 1% bovine serum albumin (BSA) and diluted in assay buffer (HBSS containing 20 mM HEPES, 0.1% BSA and 2.5 mM probenecid, pH7.4) for use in the assay at a final concentration of 70 pM. Test compounds are prepared as 10 mM stock solution in DMSO, then diluted in 384-well plates, first in DMSO, then assay buffer. On the day of the assay, cells are washed 3 times with 100 μl assay buffer and then incubated for 60 min (37° C., 5% CO2) in 60 μl assay buffer containing 1 μM Fluo-4AM ester, 0.02% pluronic acid, and 1% BSA. The dye loading solution is then aspirated and cells are washed 3 times with 100 μl assay buffer. 30 μl of that same buffer is left in each well. Within the Fluorescent Imaging Plate Reader (FLIPR, Molecular Devices), test compounds are added to the plate in a volume of 25 μl, incubated for 5 min and finally 25 μl of agonist is added. Fluorescence is measured for each well at 1 second intervals for 5 minutes and the height of each fluorescence peak is compared to the height of the fluorescence peak induced by 70 pM Ala-6,12 orexin-A with buffer in place of antagonist. For each antagonist, IC50 value (the concentration of compound needed to inhibit 50% of the agonist response) is determined. Alternatively, compound potency can be assessed by a radioligand binding assay (described in Bergman et. al. Bioorg. Med. Chem. Lett. 2008, 18, 1425-1430) in which the inhibition constant (Ki) is determined in membranes prepared from CHO cells expressing either the OX1 or OX2 receptor. The intrinsic orexin receptor antagonist activity of a compound which may be used in the present invention may be determined by these assays.
On the technique in general: A change in cytosolic calcium serves as a functional read-out for many receptors and channels.

Experiment [2] has as its target hOX1R (orexin-1 receptor) (Homo sapiens, UniProt O43613). The experiment can be described thus: FLIPR Ca2+ flux assay, hOX1R. In kind it is cell-based. The following applies: CHO cells expressing the receptor; agonist 70 pM Ala-6,12 human orexin-A.

Some results are limits rather than exact numbers.

Chain of human orexin-2 receptor (O43614 whole entry): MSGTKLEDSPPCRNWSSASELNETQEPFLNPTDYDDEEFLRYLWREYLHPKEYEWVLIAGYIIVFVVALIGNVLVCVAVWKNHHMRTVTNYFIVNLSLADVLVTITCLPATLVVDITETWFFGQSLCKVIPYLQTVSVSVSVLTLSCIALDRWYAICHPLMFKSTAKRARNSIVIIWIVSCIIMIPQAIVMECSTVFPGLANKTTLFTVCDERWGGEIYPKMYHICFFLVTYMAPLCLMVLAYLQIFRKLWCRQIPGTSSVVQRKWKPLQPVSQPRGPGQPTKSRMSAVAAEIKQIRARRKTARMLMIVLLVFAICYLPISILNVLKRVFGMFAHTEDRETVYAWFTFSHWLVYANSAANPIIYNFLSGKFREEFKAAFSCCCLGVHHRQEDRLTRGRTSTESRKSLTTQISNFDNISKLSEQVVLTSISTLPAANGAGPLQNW

Consider `CCN(CCn1nc(C)c(C(C)(C)O)n1)C(=O)c1ccccc1C1CC1(F)F` (stereo not drawn) [Example 38, 2-(2,2-difluorocyclopropyl)-N-ethyl-N-(2-(4-(2-hydroxypropan-2-yl)-5-methyl-2H-1,2,3-triazol-2-yl)ethyl)benzamide], for which the figures for the IC50 in experiment [1] and in experiment [2] were 10 nM and 1480 nM, respectively.
For `CCN(CCn1nc(C)c(C(C)(C)O)n1)C(=O)c1ccc(OC)nc1C1CC1` [Example 39, 2-cyclopropyl-N-ethyl-N-(2-(4-(2-hydroxypropan-2-yl)-5-methyl-2H-1,2,3-triazol-2-yl)ethyl)-6-methoxynicotinamide], in that order: 14 nM and 2840 nM.
For `CCN(CCn1nc(C)c(C(C)(C)O)n1)C(=O)c1ccccc1C1CCC1` [Example 40, 2-cyclobutyl-N-ethyl-N-(2-(4-(2-hydroxypropan-2-yl)-5-methyl-2H-1,2,3-triazol-2-yl)ethyl)benzamide], in that order: 13 nM and 1170 nM.
`CCN(CCn1nc(C)c(C(C)(C)O)n1)C(=O)c1ccccc1N1CCCC1` [Example 41, N-ethyl-N-(2-(4-(2-hydroxypropan-2-yl)-5-methyl-2H-1,2,3-triazol-2-yl)ethyl)-2-(pyrrolidin-1-yl)benzamide]: the IC50 is 15 nM in experiment [1] and 2100 nM in experiment [2].
As for `CCN(CCn1nc(C)c(C(C)(C)O)n1)C(=O)c1ccccc1-n1ncnn1` [Example 42, N-ethyl-N-(2-(4-(2-hydroxypropan-2-yl)-5-methyl-2H-1,2,3-triazol-2-yl)ethyl)-2-(2H-tetrazol-2-yl)benzamide], the half-maximal inhibitory concentration (IC50) in experiment [1] is 29 nM; in experiment [2] it was greater than 10000 nM.
For `CCN(CCn1nc(C)c(C(C)(C)O)n1)C(=O)c1ncccc1-n1nccn1` [Example 43, N-ethyl-N-(2-(4-(2-hydroxypropan-2-yl)-5-methyl-2H-1,2,3-triazol-2-yl)ethyl)-3-(2H-1,2,3-triazol-2-yl)picolinamide], in that order: 180 nM and greater than 10000 nM.
As to `CCN(CCn1nc(C)c(C(C)(C)O)n1)C(=O)c1ncccc1-c1ccccc1` [Example 44, N-ethyl-N-(2-(4-(2-hydroxypropan-2-yl)-5-methyl-2H-1,2,3-triazol-2-yl)ethyl)-3-phenylpicolinamide], the half-maximal inhibitory concentration (IC50) in experiment [1] is 106 nM; in experiment [2] it was greater than 10000 nM.
Consider `CCN(CCn1nc(C)c(C(C)(C)O)n1)C(=O)c1nccnc1-c1ccccn1` [Example 45, N-ethyl-N-(2-(4-(2-hydroxypropan-2-yl)-5-methyl-2H-1,2,3-triazol-2-yl)ethyl)-3-(pyridin-2-yl)pyrazine-2-carboxamide], for which the results for the IC50 in experiment [1] and in experiment [2] were 87 nM and greater than 10000 nM, respectively.
With `CCN(CCn1nc(C)c(C(C)(C)O)n1)C(=O)c1nccnc1-n1cccn1` [Example 47, N-ethyl-N-(2-(4-(2-hydroxypropan-2-yl)-5-methyl-2H-1,2,3-triazol-2-yl)ethyl)-3-(1H-pyrazol-1-yl)pyrazine-2-carboxamide], the IC50 in experiment [1] was 239 nM; in experiment [2] it was greater than 10000 nM.
For `CCN(CCn1nc(C)c(C(C)(C)O)n1)C(=O)c1cccnc1-n1cccn1` [Example 48, N-ethyl-N-(2-(4-(2-hydroxypropan-2-yl)-5-methyl-2H-1,2,3-triazol-2-yl)ethyl)-2-(1H-pyrazol-1-yl)nicotinamide], in that order: 13 nM and 7520 nM.
With `CCN(CCn1cc(C(C)(C)O)cn1)C(=O)c1ccccc1-n1nccn1` [Example 49, N-Ethyl-N-{2-[4-(1-hydroxy-1-methylethyl)-1H-pyrazol-1-yl]ethyl}-2-(2H-1,2,3-triazol-2-yl)benzamide], the IC50 in experiment [1] is 35 nM; in experiment [2], greater than 10000 nM.
For `CCN(CCn1ccc(C(C)(C)O)n1)C(=O)c1ccccc1-n1nccn1` [Example 50, N-Ethyl-N-{2-[3-(1-hydroxy-1-methylethyl)-1H-pyrazol-1-yl]ethyl}-2-(2H-1,2,3-triazol-2-yl)benzamide], in that order: 23 nM and greater than 10000 nM.
